According to PMC7278776, “Multidrug Resistance Modulation Activity of Silybin Derivatives and Their Anti-Inflammatory Potential” (Antioxidants, 2020):
Where two headings read alike, the source gives them in different places.

How the values were obtained:
[1] = system: A2780/DOX; test: Viability of A2780/DOX cells (resazurin); settings: Homo sapiens, A2780, read-out: IC50 (µM), concentration necessary to halve cell viability
Method: To determine the NO production, the medium was mixed with Griess reagent (0.04 g/mL, prepared in deionized water) in a 1:1 ratio. After 15 min, absorbance was recorded at 540 nm. To determine cell viability, the resazurin solution (0.03 mg/mL in PBS) was added to the cells. After 2 h of incubation, fluorescence was recorded (560/590 nm, ex./em.).
A multidrug resistant ovarian sub-line resistant to doxorubicin (A2780/DOX, Sigma-Aldrich) was cultivated in DMEM medium with 10% FBS and 1 × antibiotic antimycotic solution. Every other passage, doxorubicin at the final concentration of 0.1 µM was added to the culture medium to maintain the resistance of the cell line. To perform experiments, the cells were seeded at 1 × 10^5 cell/mL into the wells of a 96-well plate and incubated for 24 h. Afterwards, the cells were washed with PBS and fresh DMEM medium with tested compounds at 10, 20 and 30 µM were added to each well, except for the control wells. Subsequently, the cells were exposed to increasing concentrations of doxorubicin (0.6–20 µM) for 72 h. After incubation, the resazurin assay was performed as described above. The IC50 of doxorubicin was calculated for both the control and the samples and the fold change was counted up. […] The fold change lower than 1 means an antagonistic effect. (1) FOLD CHANGE=IC50 value of DOX cells treated with chemotherapeutic /IC50 value of DOX cells treated with chemotherapeutic and compound

[2] = system: nitric oxide (NO) production by LPS-stimulated macrophages (RAW 264.7); test: NO production by LPS-stimulated macrophages (Griess); assay type: cell-based, mouse; settings: for IC50: Mus musculus, read-out: NO Production, concentration necessary to halve NO production (IC50)
Method: Immunomodulatory effect of tested compounds was determined as their ability to decrease nitric oxide (NO) production by LPS-stimulated macrophages (RAW 264.7, Sigma-Aldrich). Briefly, the cells were seeded into the 96-well plate at a density of 1 × 10^6 cells/mL in DMEM medium (supplemented with 2 mM L-glutamine and 1 × antibiotic antimycotic solution). After 48 h, the cells were washed with PBS. The MEM medium enriched with LPS (1 µg/mL) was added to the wells, together with the samples in the concentration range of 6.25–100 µM at a final volume of 100 µL. Indomethacin, a non-steroidal anti-inflammatory drug, was tested as a positive control in the concentration range 6.25–100 µM. After 24 h, the medium was used for the quantification of NO and inflammatory cytokines.
After 15 min, absorbance was recorded at 540 nm.

[3] = biological target: T1, human recombinant P-gp (Homo sapiens, UniProt P08183); test: biochemical
T1 construct: purchased Promega
T1 sequence (P08183 whole entry): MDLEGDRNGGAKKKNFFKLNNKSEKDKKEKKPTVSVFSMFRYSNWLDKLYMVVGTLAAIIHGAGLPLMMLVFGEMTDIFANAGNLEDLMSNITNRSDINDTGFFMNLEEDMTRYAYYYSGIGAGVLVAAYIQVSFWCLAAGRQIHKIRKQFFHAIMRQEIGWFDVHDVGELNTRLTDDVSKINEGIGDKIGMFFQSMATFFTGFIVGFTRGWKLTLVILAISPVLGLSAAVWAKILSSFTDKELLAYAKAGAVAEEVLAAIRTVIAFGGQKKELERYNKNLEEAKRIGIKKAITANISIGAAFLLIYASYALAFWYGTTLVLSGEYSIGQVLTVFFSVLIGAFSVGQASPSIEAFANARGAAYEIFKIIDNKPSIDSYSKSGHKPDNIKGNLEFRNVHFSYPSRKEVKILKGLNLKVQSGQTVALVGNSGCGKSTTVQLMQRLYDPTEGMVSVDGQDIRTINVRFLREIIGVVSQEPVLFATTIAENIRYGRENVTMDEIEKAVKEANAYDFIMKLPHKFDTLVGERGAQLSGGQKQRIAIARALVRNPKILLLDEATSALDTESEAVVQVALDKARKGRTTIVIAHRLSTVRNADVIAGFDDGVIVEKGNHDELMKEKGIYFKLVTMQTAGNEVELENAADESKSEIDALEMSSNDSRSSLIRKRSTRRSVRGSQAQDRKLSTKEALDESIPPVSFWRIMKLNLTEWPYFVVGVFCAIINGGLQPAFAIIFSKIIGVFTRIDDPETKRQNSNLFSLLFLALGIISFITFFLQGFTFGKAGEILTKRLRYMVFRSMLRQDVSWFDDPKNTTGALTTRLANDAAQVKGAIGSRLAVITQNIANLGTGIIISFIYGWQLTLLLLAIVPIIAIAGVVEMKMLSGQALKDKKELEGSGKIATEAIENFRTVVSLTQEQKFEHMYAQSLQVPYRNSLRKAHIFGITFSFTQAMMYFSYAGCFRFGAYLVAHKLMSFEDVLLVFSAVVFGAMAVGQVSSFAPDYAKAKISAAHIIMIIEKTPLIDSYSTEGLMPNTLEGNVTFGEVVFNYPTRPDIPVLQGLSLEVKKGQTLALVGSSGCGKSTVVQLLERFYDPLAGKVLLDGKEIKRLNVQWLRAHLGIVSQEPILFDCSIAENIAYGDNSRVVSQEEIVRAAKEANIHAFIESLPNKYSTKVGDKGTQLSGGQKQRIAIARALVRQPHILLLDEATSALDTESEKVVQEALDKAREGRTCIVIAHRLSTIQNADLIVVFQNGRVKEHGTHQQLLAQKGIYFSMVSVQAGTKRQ
Method: The procedure and the dilution of the reagents were performed according to the manufacturer’s instructions. Briefly, the human recombinant P-gp-containing membrane (25 µg) was mixed in a 96-well plate with P-gp–Glo™ Assay buffer (control), verapamil (P-gp substrate, positive control, 0.2 mM), Na3VO4 (P-gp inhibitor, negative control, 0.1 mM), ATP standards (to construct the calibration curve, 0.375–3 mM) or samples (2.5 µL, in the concentration range 0.7–20 mM). After that, MgATP (5 mM) was added to total volume of 50 µL to each well to initiate the ATPase reaction. The plate was incubated for 1 h at 37 °C. Thereafter, the reaction was stopped by adding 50 µL of ATP detection reagent and incubated at room temperature for 20 min. The remaining non-metabolized ATP was detected as a luciferase-generated signal.
Using linear regression, the standard ATP curve was designed, and by subsequent interpolation of relative luminescence (RLU) of standards, the amount of ATP consumed in the samples was recalculated according to the manufacturer’s guidelines.

[4] = system: ABCG2 (BCRP); test: ABCG2 mRNA expression (real-time PCR); assay type: cell-based, human
Method: The A2780/DOX cell line was seeded into 5 cm Petri dishes with DMEM medium at 1 × 10^5 cell/mL. […] After 48 h of treatment, the cells were washed with PBS and harvested using the standard trypsin-EDTA procedure. The harvested cells were centrifuged (3200× g; 10 min, 4 °C). The supernatant was discarded, and the pellets were washed with 1.5 mL of cooled PBS (5400× g; 10 min, 4 °C). The washing step was repeated with 1 mL of PBS and the cells were centrifuged again (10,000× g; 3 min, 4 °C). Afterwards, the pellets were resuspended in 1 mL of Trizol (Invitrogen, Carlsbad, CA, USA) and transferred into pre-cooled RNase-free microfuge tubes. The samples were stored at −80 °C.
A Quant-iT RiboGreen RNA Assay Kit (Invitrogen) was used to determine the RNA concentration using the Infinite M200 plate reader (Tecan, Männedor, Switzerland). The cDNA was prepared from 0.5 µg of total RNA using a RevertAid First Strand Synthesis cDNA Kit (MBI Fermentas, Vilnius, Lithuania). The amplification of the ubiquitin C gene fragment was used to determine the quality of cDNA.
The experiment was performed using the ViiA7 Real-Time polymerase chain reaction (PCR) System (Life Technologies, Camarillo, CA, USA) with a 384-well block. Before quantitative real-time PCR, the master mix was prepared by mixing 2 µL of 8 × diluted cDNA, 1.75 µL of RNase free water, 1 µL of 5 × HotFIREPol Probe quantitative PCR Mix Plus (Solis Biodyne, Tartu, Estonia) and 0.25 µL of specific 20 × TaqMan Gene Expression Assay (Life Technologies), giving 5 µL of final reaction volume. Cycling parameters were: initial hold at 50 °C for 2 min and denaturation at 95 °C for 10 min, followed by 45 cycles consisting of denaturation at 95 °C for 15 s and annealing/extension at 60 °C for 1 min. After each extension phase, the fluorescence values were acquired. Duplicate samples were used for measurement and samples with a standard deviation of duplicates > 1.0 cycle threshold (Ct) were re-analyzed. The real time PCR procedure was maintained according to MIQE (Minimum information for publication of quantitative real-time PCR experiments) guidelines. The software REST 2009 (Qiagen, Hilden, Germany) served to compare relative transcript levels of genes in the cell line.

[5] = A2780/DOX, 10 µM combined with doxorubicin at IC25, 48 h
[6] = A2780/DOX, 10 µM, 48 h, without doxorubicin
[7] = RAW264.7, RAW 264.7, LPS 1 µg/mL, 24 h

| Compound | IC50 [1] | IC50 ([2]; RAW264.7, 24 h) | IC50 [3] | ABCG2 Expression Difference [4, 5] | ABCG2 Expression Difference [4, 6] | IC50 [2, 7] | downregulation of ABCG2 (BCRP) expression ([4]; 10 µM, 48 h, without doxorubicin) | ABCG2 Treated vs. Untreated [4, 6] | immunomodulation effect lower compared to its diastereomeric mixture ([2]; NO production, vs dehydrosilybin AB) |
| --- | --- | --- | --- | --- | --- | --- | --- | --- | --- |
| COc1cc(C2Oc3cc(-c4oc5cc(O)cc(O)c5c(=O)c4O)ccc3OC2CO)ccc1O (centres unmarked) [Dehydrosilybin AB, 2,3-dehydrosilybin] | 33.6 ± 0.4 µM | 19.1 ± 0.2 µM | 21.1 ± 0.6 µM | 1.698 | 1.921 |  |  |  |  |
| COc1cc([C@@H]2Oc3cc([C@H]4Oc5cc(O)cc(O)c5C(=O)[C@@H]4O)ccc3O[C@H]2CO)ccc1O [Silybin B, silybin B] | 194 ± 8.8 µM |  | 51.9 ± 2.1 µM | 1.902 | 0.335 | 26 ± 3 µM | 67% | DOWN |  |
| COc1cc([C@@H]2Oc3cc(-c4oc5cc(O)cc(O)c5c(=O)c4O)ccc3O[C@H]2CO)ccc1O [Dehydrosilybin B, 2,3-dehydrosilybin B] | 27.1 ± 0.4 µM | 31.3 ± 2.4 µM | 40.7 ± 3.8 µM | 1.948 |  |  |  |  | approximately 40% |
| COc1cc([C@H]2Oc3cc(-c4oc5cc(O)cc(O)c5c(=O)c4O)ccc3O[C@@H]2CO)ccc1O [Dehydrosilybin A, 2,3-dehydrosilybin A] | 74.4 ± 4.8 µM | 23.2 ± 1.4 µM | 60.7 ± 10 µM | 1.259 |  |  |  |  |  |
| COc1cc([C@H]2Oc3cc([C@H]4Oc5cc(O)cc(O)c5C(=O)[C@@H]4O)ccc3O[C@@H]2CO)ccc1O [Silybin A, silybin A] | 252 ± 7.6 µM |  | 43.1 ± 6.4 µM | 2.415 |  | 26.7 ± 1.6 µM |  |  |  |
| COc1cc(C2Oc3cc([C@H]4Oc5cc(O)cc(O)c5C(=O)[C@@H]4O)ccc3OC2CO)ccc1O (some centres unmarked) [Silybin AB, silybin] | 197 ± 4 µM |  | 32.6 ± 3.6 µM | 2.373 |  | 23.6 ± 1.2 µM |  |  |  |
